Data reported in patent US10368545B2, “Substituted 2-thioimidazolylcarboxamides as pesticides” (BAYER CROPSCIENCE AKTIENGESELLSCHAFT, priority 2015, dated 2019).

system: not listed separately; experiment: log P by HPLC on reversed-phase C18 columns (OECD Guideline 117); type: physicochemical; conditions: method [a]
Outline: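 Reversed-phase C18 HPLC per OECD 117, LC-MS with a linear 10% to 95% acetonitrile gradient. Acidic method at pH 2.7 with 0.1% formic acid; neutral method at pH 7.8 with 0.001 M ammonium hydrogencarbonate.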

| Compound | logP[a] |
| --- | --- |
| CN(C(=O)c1cnc([S+]([O-])c2ccc(Cl)c(C(F)(F)F)c2)n1C)c1cccnc1 (stereo not shown) [I-A-79] | 2.16 |
| CN(C(=O)c1cnc(S(=O)(=O)c2ccc(Cl)c(C(F)(F)F)c2)n1C)c1cccnc1 [I-A-80] | 2.56 |
| CN(C(=O)c1cnc([S+]([O-])c2ccc([N+](=O)[O-])cc2)n1C)c1cccnc1 (stereo not shown) [I-A-89] | 1.20 |
| COc1ccc([S+]([O-])c2ncc(C(=O)N(C)c3cccnc3)n2C)cc1 (stereo not shown) [I-A-93] | 1.12 |
| CN(C(=O)c1cnc(S(=O)(=O)c2ncccn2)n1C)c1cccnc1 [I-A-99] | 0.66 |
| CN(C(=O)c1cnc(Sc2ncc(C(F)(F)F)cn2)n1C)c1cccnc1 [I-A-105] | 1.64 |
| CN(C(=O)c1cnc(Sc2ncc(F)cn2)n1C)c1cccnc1 [I-A-107] | 1.04 |
| CN(C(=O)c1cnc(Sc2ncccc2C(F)(F)F)n1C)c1cccnc1 [I-A-110] | 1.77 |
| CN(C(=O)c1cnc(SCc2c(Cl)cccc2Cl)n1C)c1cccnc1 [I-A-125] | 2.09 |

same assay, conditions: method [b]

| Compound | logP[b] |
| --- | --- |
| CN(C(=O)c1cnc([S+]([O-])c2ccc(Cl)c(C(F)(F)F)c2)n1C)c1cccnc1 (stereo not shown) [I-A-79] | 2.29 |
| CN(C(=O)c1cnc(S(=O)(=O)c2ccc(Cl)c(C(F)(F)F)c2)n1C)c1cccnc1 [I-A-80] | 2.72 |
| CN(C(=O)c1cnc([S+]([O-])c2ccc([N+](=O)[O-])cc2)n1C)c1cccnc1 (stereo not shown) [I-A-89] | 1.38 |
| COc1ccc([S+]([O-])c2ncc(C(=O)N(C)c3cccnc3)n2C)cc1 (stereo not shown) [I-A-93] | 1.28 |
| CN(C(=O)c1cnc(S(=O)(=O)c2ncccn2)n1C)c1cccnc1 [I-A-99] | 0.87 |
| CN(C(=O)c1cnc(Sc2ncc(C(F)(F)F)cn2)n1C)c1cccnc1 [I-A-105] | 1.73 |
| CN(C(=O)c1cnc(Sc2ncc(F)cn2)n1C)c1cccnc1 [I-A-107] | 1.20 |
| CN(C(=O)c1cnc(Sc2ncccc2C(F)(F)F)n1C)c1cccnc1 [I-A-110] | 1.93 |
| CN(C(=O)c1cnc(SCc2c(Cl)cccc2Cl)n1C)c1cccnc1 [I-A-125] | 2.28 |

same assay, conditions: reversed-phase C18 HPLC column, pH 2.7, acidic range, pH 2.7, 0.1% aqueous formic acid / acetonitrile; read-out: log P[a]

| Compound | chromatographic logP |
| --- | --- |
| CN(C(=O)c1cn(C)c(Sc2ncccn2)n1)c1cccnc1 [I-B-1] | 0.42 |

same assay, conditions: reversed-phase C18 HPLC column, pH 7.8, neutral range, pH 7.8, 0.001 molar aqueous ammonium hydrogencarbonate / acetonitrile; read-out: log P[n]

| Compound | chromatographic logP |
| --- | --- |
| CN(C(=O)c1cn(C)c(Sc2ncccn2)n1)c1cccnc1 [I-B-1] | 0.83 |

system: green peach aphid (Myzus persicae); experiment: Myzus persicae spray test (Chinese cabbage leaf discs); type: in vivo; conditions: Myzus persicae, foliar; application rate 500 g/ha; after 5 or 6 days; Chinese cabbage leaf discs; read-out: efficacy (aphids killed)
Outline: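 Leaf discs bearing all aphid stages are sprayed with compound dissolved in acetone/DMF and diluted with water containing 1000 ppm emulsifier. Efficacy in % is scored after 5 or 6 days: 100% means all aphids killed, 0% none killed.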

| Compound | pest or weed control at 500 g/ha [%] |
| --- | --- |
| CN(C(=O)c1cn(C)c(Sc2ncccn2)n1)c1cccnc1 [I-B-1] | 100 |

same assay, conditions: application rate 500 g/ha; after 5 or 6 days; Chinese cabbage leaf discs

| Compound | efficacy (aphids killed) [%] |
| --- | --- |
| CN(C(=O)c1cnc([S+]([O-])c2ccc(Cl)c(C(F)(F)F)c2)n1C)c1cccnc1 (stereo not shown) [I-A-79] | 90 |
| CN(C(=O)c1cnc(Sc2ncc(C(F)(F)F)cn2)n1C)c1cccnc1 [I-A-105] | 100 |
| CN(C(=O)c1cnc(Sc2ncc(F)cn2)n1C)c1cccnc1 [I-A-107] | 90 |
| CN(C(=O)c1cnc(Sc2ncccc2C(F)(F)F)n1C)c1cccnc1 [I-A-110] | 100 |
| CN(C(=O)c1cnc(SCc2c(Cl)cccc2Cl)n1C)c1cccnc1 [I-A-125] | 90 |

system: greenhouse red spider mite (Tetranychus urticae); experiment: Tetranychus urticae spray test, OP-resistant (bean leaf discs); type: in vivo; conditions: application rate 500 g/ha, after 6 days
Method: Tetranychus urticae—Spray Test, OP-Resistant
Solvent: 78.0 parts by weight of acetone • • 1.5 parts by weight of dimethylformamide
(§1) Emulsifier: alkylaryl polyglycol ether
(§2) To produce a suitable active compound preparation, 1 part by weight of active compound is dissolved using the stated parts by weight of solvent and made up with water containing an emulsifier concentration of 1000 ppm until the desired concentration is attained. To produce further test concentrations, the preparation is diluted with emulsifier-containing water.
Discs of bean leaves (Phaseolus vulgaris) infested with all stages of the greenhouse red spider mite (Tetranychus urticae) are sprayed with an active compound preparation of the desired concentration.
After 6 days, the efficacy in % is determined. 100% means that all the spider mites had been killed; 0% means that no spider mites had been killed.

| Compound | efficacy (spider mites killed) [%] |
| --- | --- |
| CN(C(=O)c1cnc(Sc2ncc(C(F)(F)F)cn2)n1C)c1cccnc1 [I-A-105] | 90 |

system: larvae of the mustard beetle (Phaedon cochleariae); experiment: Phaedon cochleariae spray test (Chinese cabbage leaf discs); type: in vivo; conditions: application rate 500 g/ha, after 7 days
Method: Phaedon cochleariae—Spray Test
(§3) Solvents: 78.0 parts by weight of acetone • • 1.5 parts by weight of dimethylformamide
as §1, §2
After 7 days, the efficacy in % is determined. 100% means that all beetle larvae were killed; 0% means that no beetle larvae were killed.

| Compound | efficacy (beetle larvae killed) [%] |
| --- | --- |
| CN(C(=O)c1cnc([S+]([O-])c2ccc(Cl)c(C(F)(F)F)c2)n1C)c1cccnc1 (stereo not shown) [I-A-79] | 100 |
| CN(C(=O)c1cnc(S(=O)(=O)c2ccc(Cl)c(C(F)(F)F)c2)n1C)c1cccnc1 [I-A-80] | 100 |

system: green peach aphid (Myzus persicae); experiment: Myzus persicae spray test (bell pepper plants); type: in vivo; conditions: application rate 20 ppm, after 6 days
Method: Myzus persicae—Spray Test
Solvent: 14 parts by weight of dimethylformamide
as §1
as §2, with “water. If the addition of ammonium salts and/or penetrants is required, these are each added in a concentration of 1000 ppm to the formulation solution.” for “water.”
Bell pepper plants (Capsicum annuum) severely infested with the green peach aphid (Myzus persicae) are treated by spraying with the active compound preparation in the desired concentration.
After 6 days, the kill in % is determined. 100% means that all of the aphids have been killed; 0% means that none of the aphids have been killed.

| Compound | efficacy (kill of aphids) [%] |
| --- | --- |
| CN(C(=O)c1cnc([S+]([O-])c2ccc([N+](=O)[O-])cc2)n1C)c1cccnc1 (stereo not shown) [I-A-89] | 99 |
| COc1ccc([S+]([O-])c2ncc(C(=O)N(C)c3cccnc3)n2C)cc1 (stereo not shown) [I-A-93] | 95 |
| CN(C(=O)c1cnc(S(=O)(=O)c2ncccn2)n1C)c1cccnc1 [I-A-99] | 100 |

system: green peach aphid (Myzus persicae); experiment: Contrasting example: Myzus persicae spray test (MYZUPE); type: in vivo; conditions: MYZUPE, 100 g ai/ha, 6 dat
Method: Myzus persicae—Spray Test (MYZUPE)
as §3, §1, §2
Discs of Chinese cabbage leaves (Brassica pekinensis), infested by all stages of the green peach aphid (Myzus persicae) are sprayed with an active compound preparation of the desired concentration.
After the desired period of time, the efficacy in % is determined. 100% means that all aphids were killed; 0% means that no aphids were killed.

| Compound | % efficacy [%] |
| --- | --- |
| CN(C(=O)c1cnc([S+]([O-])c2ccc([N+](=O)[O-])cc2)n1C)c1cccnc1 (stereo not shown) [I-A-89] | 70 |
| COc1ccc([S+]([O-])c2ncc(C(=O)N(C)c3cccnc3)n2C)cc1 (stereo not shown) [I-A-93] | 70 |
| CN(C(=O)c1cnc(S(=O)(=O)c2ncccn2)n1C)c1cccnc1 [I-A-99] | 70 |
| CN(C(=O)c1cnc(Sc2ncc(C(F)(F)F)cn2)n1C)c1cccnc1 [I-A-105] | 100 |
| CN(C(=O)c1cnc(Sc2ncc(F)cn2)n1C)c1cccnc1 [I-A-107] | 90 |
| CN(C(=O)c1cnc(Sc2ncccc2C(F)(F)F)n1C)c1cccnc1 [I-A-110] | 100 |
| CN(C(=O)c1cnc(SCc2c(Cl)cccc2Cl)n1C)c1cccnc1 [I-A-125] | 70 |

same assay, conditions: Myzus persicae, 144 h; MYZUPE, 100 g ai/ha, 6 dat; read-out: % efficacy

| Compound | pest or weed control at 100 g/ha [%] |
| --- | --- |
| O=C(Nc1cccnc1)c1c[nH]cn1 [Example 13] | 0 |
| Cc1nc(C(=O)Nc2cccnc2)c[nH]1 [Example 14] | 0 |
| CN(C(=O)c1cn(C)c(Sc2ncccn2)n1)c1cccnc1 [I-B-1] | 90 |

system: greenhouse red spider mite (Tetranychus urticae); experiment: Contrasting example: Tetranychus urticae spray test, OP resistant (TETRUR); type: in vivo; conditions: 500 g ai/ha, 6 dat
Method: Tetranychus urticae—Spray Test; OP Resistant (TETRUR)
as §3, §1, §2
Discs of bean leaves (Phaseolus vulgaris), infested by all stages of the greenhouse red spider mite (Tetranychus urticae) are sprayed with an active compound preparation of the desired concentration.
After the desired period of time, the efficacy in % is determined. 100% means that all spider mites were killed; 0% means that no spider mites were killed.

| Compound | % efficacy [%] |
| --- | --- |
| O=C(Nc1cccnc1)c1c[nH]cn1 [Example 13] | 0 |
| Cc1nc(C(=O)Nc2cccnc2)c[nH]1 [Example 14] | 0 |
| CN(C(=O)c1cnc(Sc2ncc(C(F)(F)F)cn2)n1C)c1cccnc1 [I-A-105] | 90 |
| CN(C(=O)c1cnc(Sc2ncc(F)cn2)n1C)c1cccnc1 [I-A-107] | 70 |
| CN(C(=O)c1cnc(Sc2ncccc2C(F)(F)F)n1C)c1cccnc1 [I-A-110] | 70 |
| CN(C(=O)c1cnc(SCc2c(Cl)cccc2Cl)n1C)c1cccnc1 [I-A-125] | 70 |

system: larvae of the mustard beetle (Phaedon cochleariae); experiment: Contrasting example: Phaedon cochleariae spray test (PHAECO); type: in vivo; conditions: 500 g ai/ha, 7 dat
Method: Phaedon cochleariae—Spray Test (PHAECO)
as §3, §1, §2
After the desired period of time, the efficacy in % is determined. 100% means that all beetle larvae were killed; 0% means that no beetle larvae were killed.

| Compound | % efficacy [%] |
| --- | --- |
| O=C(Nc1cccnc1)c1c[nH]cn1 [Example 13] | 0 |
| Cc1nc(C(=O)Nc2cccnc2)c[nH]1 [Example 14] | 0 |
| CN(C(=O)c1cnc([S+]([O-])c2ccc(Cl)c(C(F)(F)F)c2)n1C)c1cccnc1 (stereo not shown) [I-A-79] | 100 |
| CN(C(=O)c1cnc(S(=O)(=O)c2ccc(Cl)c(C(F)(F)F)c2)n1C)c1cccnc1 [I-A-80] | 100 |
